The test deals with Rif^R-M. tuberculosis H37Rv. Put plainly: microbe, parasite or virus in culture. In kind it is cell-based. As to conditions: Mycobacterium tuberculosis.

Experimental findings from publication PMC12728655, “Engineering an Artificial Myxopyronin Derivative with Enhanced Metabolic Stability via Mutasynthesis” (JACS Au, 2025) are described below.

≈ marks a conversion by molar mass, not a printed value. Bounds are passed on as bounds.

In turn, `COC(=O)N/C=C/CC[C@@H](C)c1cc(O)c(C(=O)/C(C)=C/C=C(\C)CCC(F)(F)F)c(=O)o1` [MYX (8)] had an MIC of 1 µg/mL (≈ 2.12 µM). With `CCC/C(C)=C/C=C(\C)C(=O)c1c(O)cc([C@H](C)CC/C=C/NC(=O)OC)oc1=O` [MYX A (1), myxopyronins A] the figure was 2 to 4 µg/mL (≈ 4.79 to 9.58 µM); with `CO[C@H]1/C=C/O[C@@]2(C)Oc3c(C)c(O)c4c(O)c(c(/C=N/N5CCN(C)CC5)c(O)c4c3C2=O)NC(=O)/C(C)=C\C=C\[C@H](C)[C@H](O)[C@@H](C)[C@@H](O)[C@@H](C)[C@H](OC(C)=O)[C@@H]1C` [rifampin], above 64 µg/mL.
